According to patent publication US6534524B1, “Indazole compounds and pharmaceutical compositions for inhibiting protein kinases, and methods for their use” (Agouron Pharmaceuticals, Inc., priority 1999, dated 2003):
Like-named read-outs stand apart in the source and are kept apart here. One block for each compound: values may come before it.

Key:
[1] = Determination of inhibitor concentration in mouse plasma after intraperitoneal and oral dosing; assay type: in vivo
Procedure: Blood collection was via ocular bleed at 0.5, 1, 4 hr with the final time point, 7 hour, via intracardiac puncture. The blood was centrifuged to collect plasma, which was then stored at −80° C. until analysis. Samples were prepared for analysis using an internal standard and sodium hydroxide. After vortexing, ethyl acetate was added and mixed for 15-20 minutes at ambient temperature. […] The samples were then analyzed via HPLC or LC-MS. Compound levels were quantitated by generating a standard curve of known compound concentration in mouse plasma.

[2] = biological target: unphosphorylated VEGF-R2Δ50 (FLVK) (Homo sapiens, UniProt P35968, DEL940-989/E990V); assay: VEGF-R2 coupled spectrophotometric assay, unphosphorylated VEGF-R2Δ50 (FLVK); settings: for Ki: FLVK Ki, Table 1; for inhibition at 0.05 µM: read-out: FLVK % inhibition
Sequence of unphosphorylated VEGF-R2Δ50 (FLVK) (P35968 with tags, fused parts or gaps DEL940-989/E990V limits assumed): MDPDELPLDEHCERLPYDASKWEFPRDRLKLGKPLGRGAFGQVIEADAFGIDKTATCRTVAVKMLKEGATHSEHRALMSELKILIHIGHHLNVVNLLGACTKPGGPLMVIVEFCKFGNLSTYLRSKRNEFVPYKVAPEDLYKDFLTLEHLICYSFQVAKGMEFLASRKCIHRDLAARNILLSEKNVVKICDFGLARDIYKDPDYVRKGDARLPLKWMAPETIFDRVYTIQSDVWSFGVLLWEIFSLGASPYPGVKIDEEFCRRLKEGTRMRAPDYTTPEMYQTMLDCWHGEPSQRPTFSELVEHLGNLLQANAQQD

[3] = Human liver microsome (HLM) assay; assay type: in vitro ADME; settings: human liver microsomes, 5 μM test compound
Procedure: Human Liver Microsome (HLM) Assay Compound metabolism in human liver microsomes was measured by LC-MS analytical assay procedures as follows. […] (3 tubes per test compound-triplicate). […] The samples were then transferred to separate polypropylene microcentrifuge tubes and centrifuged at 14000 g for 10 min. (Fisher Micro […] M0017580). For each replicate (#1-3) at each timepoint (0 and 2 h), an aliquot sample of each test compound was combined into a single HPLC vial insert (6 total samples) for LC-MS analysis, which is described below.

[4] = system: human umbilical vein endothelial cells (HUVEC); assay: HUVEC proliferation assay (VEGF-stimulated, MTT); assay type: cell-based; settings: Homo sapiens, HUVEC
[5] = IP, 25 mg/kg, vehicle PEG400:H2O pH 2.3 30:70
[6] = PO, 50 mg/kg, vehicle PEG400:H2O pH 2.3 30:70
[7] = female, IP, 25 mg/kg, vehicle PEG400:H2O pH 2.3 30:70, read-out: Cmin (7 hr conc.)
[8] = female, PO, 50 mg/kg, vehicle PEG400:H2O pH 2.3 30:70, read-out: Cmin (7 hr conc.)
[9] = IP, 25 mg/kg, vehicle PEG400:H2O pH 2.3 60:40
[10] = PO, 50 mg/kg, vehicle PEG400:H2O pH 2.3 60:40
[11] = female, IP, 25 mg/kg, vehicle PEG400:H2O pH 2.3 60:40, read-out: Cmin (7 hr conc.)
[12] = female, PO, 50 mg/kg, vehicle PEG400:H2O pH 2.3 60:40, read-out: Cmin (7 hr conc.)
[13] = female, IP, 25 mg/kg, vehicle PEG400:H2O pH 2.3 30:70
[14] = + albumin, read-out: HUVEC + albumin IC50
[15] = female, PO, 25 mg/kg, vehicle PEG400:H2O pH 2.3 30:70
[16] = female, PO, 25 mg/kg, vehicle PEG400:H2O pH 2.3 30:70, read-out: Cmin (7 hr conc.)
[17] = PO, 25 mg/kg, vehicle PEG400:H2O pH 2.3 30:70

Compound: Cn1nc(C(C)(C)C)cc1C(=O)Nc1cccc(C(=O)c2ccc3c(/C=C/c4ccccn4)n[nH]c3c2)c1 [Example 41(n), 6-[3-((3-t-Butyl-1-methyl-1H-pyrazol-5-yl)carboxamido)benzoyl]-3-E-[2-(pyridin-2-yl)ethenyl]-1H-indazole]
- AUClast [1, 5]: 9408 ng·h/mL
- Cmax [1, 5]: 1976 ng/mL
- plasma half-life (T1/2) [1, 5]: 3.2 h
- AUClast [1, 6]: 9066 ng·h/mL
- Cmax [1, 6]: 2245 ng/mL
- plasma half-life (T1/2) [1, 6]: 1.9 h
- concentration at 7 h [1, 7]: 465 ng/mL
- concentration at 7 h [1, 8]: 253 ng/mL
- Ki [2]: 0.2 nM

Compound: O=C(Nc1cccc(C(=O)c2ccc3c(/C=C/c4ccccn4)n[nH]c3c2)c1)c1ccncc1 [Example 41(b), 6-[3-(Pyridin-4-ylcarboxamido)benzoyl]-3-E-[2-(pyridin-2-yl)ethenyl]-1H-indazole]
- plasma half-life (T1/2) [1, 9]: 4.7 h
- AUClast [1, 10]: 759 ng·h/mL
- plasma half-life (T1/2) [1, 10]: 1.1 h
- AUC(0-t) ([1]; female, IP, 25 mg/kg, vehicle PEG400:H2O pH 2.3 60:40): > 5870 ng·h/mL
- Cmax ([1]; female, IP, 25 mg/kg, vehicle PEG400:H2O pH 2.3 60:40, read-out: Cmax): > 1000 ng/mL
- concentration at 7 h [1, 11]: 412 ng/mL
- concentration at 7 h [1, 12]: 6 ng/mL
- Ki [2]: 0.26 nM

Compound: Cc1cc(C(=O)Nc2cccc(Oc3ccc4c(/C=C/c5ccccn5)n[nH]c4c3)c2)nn1C [Example 31(b), 6-[3-((1,5-Dimethyl-1H-pyrazol-3-yl)carboxamido)phenoxy]-3-E-[2-(pyridin-2-yl)ethenyl]-1H-indazole]
- plasma half-life (T1/2) [1, 5]: 1.7 h
- AUClast [1, 6]: 2071 ng·h/mL
- plasma half-life (T1/2) [1, 6]: 1.0 h
- AUC(0-t) [1, 13]: > 7040 ng·h/mL
- concentration at 7 h [1, 7]: 177 ng/mL
- concentration at 7 h [1, 8]: 15 ng/mL
- Ki [2]: < 0.1 nM

- % remain (HLM, 2 h) [3]: 15%
Compound: O=C(NCc1ccccc1F)c1ccccc1Sc1ccc2c(/C=C/c3ccccn3)n[nH]c2c1 [Example 35(f)]

Compound: Cc1nc(/C=C/c2n[nH]c3cc(C(=O)c4cccc(NC(=O)c5ccccc5)c4)ccc23)cs1 [Example 42(c), 6-(3-Benzanidobenzoyl)-3-E-[2-(2-methylthiazol-4-yl)ethenyl]-1H-indazole]
- IC50 [4, 14]: 1 to 3 nM
- inhibition at 0.05 µM [2]: 95%

Compound: O=C(Nc1cccc(Oc2ccc3c(/C=C/c4c[nH]cn4)n[nH]c3c2)c1)c1ccccc1 [Example 32(a), 6-[3-Benzamidophenoxy]-3-E-[2-(1H-imidazol-4-yl)ethenyl]-1H-indazole]
- AUClast [1, 6]: 4190 ng·h/mL
- AUC(0-t) [1, 13]: > 20600 ng·h/mL
- concentration at 7 h [1, 7]: 1270 ng/mL
- AUC(0-t) [1, 15]: 490 ng·h/mL
- concentration at 7 h [1, 16]: 18 ng/mL
- concentration at 7 h [1, 8]: 40 ng/mL
- Ki [2]: < 0.1 nM

Compound: O=C(Nc1cccc(C(=O)c2ccc3c(-c4nc5cccnc5[nH]4)n[nH]c3c2)c1)c1ccccc1 [Example 42(d), 6-(3-Benzaniidobenzoyl)-3-(3H-imidazo[4,5-b]pyridin-2-yl)-1H-indazole]
- AUClast [1, 9]: 1774 ng·h/mL
- plasma half-life (T1/2) [1, 9]: 1.4 h
- AUClast [1, 10]: 46 ng·h/mL
- plasma half-life (T1/2) [1, 10]: BLQ
- concentration at 7 h [1, 11]: 31 ng/mL
- concentration at 7 h [1, 12]: 18 ng/mL
- Ki [2]: 1.7 nM

- % remain (HLM, 2 h) [3]: 8%
Compound: O=C(NCc1ccco1)c1ccccc1Sc1ccc2c(/C=C/c3ccccn3)n[nH]c2c1 [Example 35(bb), 6-[2-((fur-2-yl)Methylcarbamoyl)phenylsulfanyl]-3-E-[2-(pyridin-2-yl)ethenyl]-1H-indazole]

Compound: O=C(Nc1cccc(Oc2ccc3c(/C=C/c4ccccc4)n[nH]c3c2)c1)c1ccccc1 [Example 4(a), N-[3-(3-Styryl-1H-indazol-6-yloxy)-phenyl]-benzamide]
- % remain (HLM, 2 h) [3]: 35%

Compound: O=C(NOCc1ccccc1)c1ccccc1Sc1ccc2c(/C=C/c3ccccn3)n[nH]c2c1 [Example 35(i), 6-[2-(Benzyloxycarbamoyl)phenylsulfanyl]-3-E-[2-(pyridin-2-yl)ethenyl]-1H-indazole]
- IC50 [4, 14]: 4.7 nM
- inhibition at 0.05 µM [2]: 100%

Compound: CC(=O)Nc1cccc(Sc2ccc3c(/C=C/c4ccccc4)n[nH]c3c2)c1 [Example 20(a), 6-(3-Acetamido-phenylsulfanyl)-3-styryl-1H-indazole]
- % remain (HLM, 2 h) [3]: 52%

Compound: COc1cc(C(=O)Nc2cccc(C(=O)c3ccc4c(/C=C/c5ccccn5)n[nH]c4c3)c2)cc(Cl)n1 [Example 41(u), 6-[3-((2-Chloro-6-methoxypyridin-4-yl)carboxanido)benzoyl]-3-E-[2-(pyridin-2-yl)ethenyl]-1H-indazole]
- AUClast [1, 17]: 875 ng·h/mL
- Cmax [1, 17]: 224 ng/mL
- plasma half-life (T1/2) [1, 17]: 5.6 h
- concentration at 7 h [1, 16]: 51 ng/mL
- Ki [2]: 0.08 nM

Compound: O=C(c1cccc(NC(=O)c2cc(Cl)ccn2)c1)c1ccc2c(/C=C/c3ccccc3)n[nH]c2c1 [Example 19(n), 6-[3-(4-Chloropyridin-2-ylcarboxamido)benzoyl]-3-E-styryl-1H-indazole]
- Ki [2]: 0.54 nM

- % remain (HLM, 2 h) [3]: 21%
Compound: CCONC(=O)c1cccc(F)c1Sc1ccc2c(/C=C/c3ccccn3)n[nH]c2c1 [Example 37(a), 6-[6-Fluoro-2-(ethoxycarbamoyl)phenylsulfanyl]-3-E-[2-(pyridin-2-yl)ethenyl]-1H-indazole]

Compound: CC(C)(C)c1ccc(C(=O)Nc2cccc(C(=O)c3ccc4c(/C=C/c5ccccn5)n[nH]c4c3)c2)cc1 [Example 41(s), 6-[3-(4-t-Butylbenzanido)benzoyl]-3-E-[2-(pyridin-2-yl)ethenyl]-1H-indazole]
- Ki [2]: 0.23 nM

- % remain (HLM, 2 h) [3]: 27%
Compound: C=CCNC(=O)c1ccccc1Sc1ccc2c(/C=C/c3ccccn3)n[nH]c2c1 [Example 35(u), 6-[2-(Allylcarbamoyl)phenylsulfanyl]-3-E-[2-(pyridin-2-yl)ethenyl]-1H-indazole]

Compound: O=C(Nc1cccc(Oc2ccc3c(/C=C/c4ccccc4)n[nH]c3c2)c1)c1cccc2[nH]ccc12 [Example 30(d), 6-[3-(indol-4-ylcarboxamido)phenoxy]-3-E-stryrylindazole]
- Ki [2]: 0.37 nM

Compound: CCn1nc(C)cc1C(=O)Nc1cccc(Oc2ccc3c(/C=C/c4ccccc4)n[nH]c3c2)c1 [Example 30(e), 6-[3-((1-Ethyl-3-methyl-1H-pyrazol-5-yl)carboxamido)phenoxy]-3-E-stryrylindazole]
- Ki [2]: 0.37 nM

Compound: Nc1cccc(C(=O)c2ccc3c(/C=C/c4ccccc4)n[nH]c3c2)c1 [Example 18, (3-Amino-phenyl)-(3-styryl-1H-indazol-6-yl)-methanone]
- Ki [2]: 12.5 nM

Compound: CNC(=O)c1ccccc1Nc1ccc2c(/C=C/c3ccccn3)n[nH]c2c1 [Example 39(a), 6-[2-(Methylcarbamoyl)phenylamino]-3-E-[2-(pyridin-2-yl)ethenyl]-1H-indazole]
- IC50 ([4]; read-out: HUVEC IC50): 1.4 nM
- plasma half-life (T1/2) [1, 17]: 1.4 h
- AUC(0-t) [1, 15]: > 14800 ng·h/mL
- Cmax ([1]; female, PO, 25 mg/kg, vehicle PEG400:H2O pH 2.3 30:70, read-out: Cmax): > 4000 ng/mL
- concentration at 7 h [1, 16]: 219 ng/mL
- inhibition at 0.05 µM [2]: 53%

Compound: O=C(NNC(=O)c1ccccc1Sc1ccc2c(/C=C/c3ccccn3)n[nH]c2c1)c1cccs1 [Example 35(m), 6-[2-((Thien-2-ylhydrazido)carbonyl)phenylsulfanyl]-3-E-[2-(pyridin-2-yl)ethenyl]-1H-indazole]
- AUClast [1, 5]: 226 ng·h/mL
- plasma half-life (T1/2) [1, 5]: 4.0 h
- AUClast [1, 17]: 10 ng·h/mL
- Cmax [1, 17]: 7 ng/mL
- concentration at 7 h [1, 7]: 17 ng/mL
- concentration at 7 h [1, 16]: 0 ng/mL
- Ki [2]: 0.04 nM

Compound: CN(c1ccccc1)c1ccc2c(/C=C/c3ccccc3)n[nH]c2c1 [Example 14, Methyl-phenyl-(3-styryl-1H-indazol-6-yl)-amine]
- Ki [2]: 15 nM

Compound: CCn1nc(C)cc1C(=O)Nc1cccc(Oc2ccc3c(/C=C/c4c[nH]c(C)n4)n[nH]c3c2)c1 [Example 32(c), 6-[3-((1-Ethyl-3-methyl-1H-pyrazol-5-yl)carboxamido)phenoxy]-3-E-[2-(2-methylimidazol-4-yl)ethenyl]-1H-indazole]
- AUClast [1, 17]: 388 ng·h/mL
- Cmax [1, 17]: 161 ng/mL
- plasma half-life (T1/2) [1, 17]: 2.4 h
- concentration at 7 h [1, 16]: 10 ng/mL
- Ki [2]: 0.27 nM

Compound: O=C(Cc1cc(F)cc(F)c1)Nc1cccc(C(=O)c2ccc3c(/C=C/c4ccccn4)n[nH]c3c2)c1 [Example 41(f), 6-[3-(3,5-Difluorophenylacetamido)benzoyl]-3-E-[2-(pyridin-2-yl)ethenyl]-1H-indazole]
- % remain (HLM, 2 h) [3]: 59%

Compound: O=C(N[C@@H]1C[C@H]1c1ccccc1)c1ccccc1Sc1ccc2c(/C=C/c3ccccn3)n[nH]c2c1 (racemic) [Example 34]
- % remain (HLM, 2 h) [3]: 28%
